Experimental data taken from ChEMBL document CHEMBL1127566, “Thienyl and thiazolyl acyclic analogues of 5-deazatetrahydrofolic acid” (J Med Chem, 1994).

B1: Folylpolyglutamate synthase, mitochondrial (Homo sapiens), Q05932 (protein)
chain: MSRARSHLRAALFLAAASARGITTQVAARRGLSAWPVPQEPSMEYQDAVRMLNTLQTNAGYLEQVKRQRGDPQTQLEAMELYLARSGLQVEDLDRLNIIHVTGTKGKGSTCAFTECILRSYGLKTGFFSSPHLVQVRERIRINGQPISPELFTKYFWRLYHRLEETKDGSCVSMPPYFRFLTLMAFHVFLQEKVDLAVVEVGIGGAYDCTNIIRKPVVCGVSSLGIDHTSLLGDTVEKIAWQKGGIFKQGVPAFTVLQPEGPLAVLRDRAQQISCPLYLCPMLEALEEGGPPLTLGLEGEHQRSNAALALQLAHCWLQRQDRHGAGEPKASRPGLLWQLPLAPVFQPTSHMRLGLRNTEWPGRTQVLRRGPLTWYLDGAHTASSAQACVRWFRQALQGRERPSGGPEVRVLLFNATGDRDPAALLKLLQPCQFDYAVFCPNLTEVSSTGNADQQNFTVTLDQVLLRCLEHQQHWNHLDEEQASPDLWSAPSPEPGGSASLLLAPHPPHTCSASSLVFSCISHALQWISQGRDPIFQPPSPPKGLLTHPVAHSGASILREAAAIHVLVTGSLHLVGGVLKLLEPALSQ

Assays:
[1] = test system: CCRF-CEM; assay: In vitro antitumor activity was assessed from rate of cell growth of CCRF/CEM cell line; type: functional, cell-based; conditions: Homo sapiens
[2] = test system: MCF7; assay: Ability to inhibit growth of MCF-7 human breast adenocarcinoma in vitro; type: functional, cell-based
[3] = test system: MOLT-4; assay: Ability to inhibit [3H]methotrexate transport into MOLT-4 cells in vitro; type: functional, cell-based; conditions: Homo sapiens
[4] = test system: folylpolyglutamate synthase (FPGS); assay: Km of Hog folyl-poly-glutamate synthase (FPGS) relative to aminopterin; design: species or system Sus scrofa; conditions: pig, hog folylpolyglutamate synthase (FPGS) enzyme
[5] = species on record: Sus scrofa; assay: Vmax of Hog folyl-poly-glutamate synthase (FPGS) relative to aminopterin; conditions: pig, in vitro
[6] = substrate: Nc1nc(N)c(CCCNc2cnc(C(=O)N[C@@H](CCC(=O)O)C(=O)O)s2)c(O)n1; assay: (§1) Km of Hog Folyl-polyglutamate synthase relative to aminopterin; conditions: Sus scrofa
[7] = substrate: Nc1nc(N)c(CCCNc2ccc(C(=O)N[C@@H](CCC(=O)O)C(=O)O)s2)c(O)n1; assay: as §1; conditions: Sus scrofa
[8] = substrate: Nc1nc(N)c(CCCNc2cnc(C(=O)N[C@@H](CCC(=O)O)C(=O)O)s2)c(O)n1; assay: (§2) Vmax of Hog Folyl-polyglutamate synthase relative to aminopterin; conditions: Sus scrofa
[9] = substrate: Nc1nc(N)c(CCCNc2ccc(C(=O)N[C@@H](CCC(=O)O)C(=O)O)s2)c(O)n1; assay: as §2; conditions: Sus scrofa

| Molecule | IC50 [1] [nM] | IC50 [2] [nM] | IC50 [3] [nM] | further results |
| --- | --- | --- | --- | --- |
| Nc1nc(O)c2c(n1)NCC(CCc1ccc(C(=O)N[C@@H](CCC(=O)O)C(=O)O)s1)C2 (stereo partly specified) | 2.3 |  |  |  |
| Nc1nc2c(c(=O)[nH]1)C[C@@H](CCc1ccc(C(=O)N[C@@H](CCC(=O)O)C(=O)O)cc1)CN2 [LOMETREXOL] | 15 | 18 | 1500 | Km [4]: 17.5 µM; Vmax [5]: 97% |
| Nc1nc(N)c(CCCNc2ccc(C(=O)N[C@@H](CCC(=O)O)C(=O)O)s2)c(O)n1 |  | 38 | 1600 |  |
| Nc1nc(N)c(CCCNc2cnc(C(=O)N[C@@H](CCC(=O)O)C(=O)O)s2)c(O)n1 |  | 4 | 800 |  |
| Nc1nc(O)c2c(n1)NCC(CCc1ccc(C(=O)N[C@@H](CCC(=O)O)C(=O)O)o1)C2 (stereo partly specified) | 27 |  |  |  |
| Nc1nc(N)c(CCCNc2ccc(C(=O)N[C@@H](CCC(=O)O)C(=O)O)cc2)c(O)n1 |  | 37 |  |  |
| B1 |  |  |  | Km [6]: 8.6 µM; Km [7]: 9.3 µM; Vmax [8]: 99.3%; Vmax [9]: 118% |
